# From PMC2099433, “The binding site for neohesperidin dihydrochalcone at the human sweet taste receptor” (BMC Structural Biology, 2007)
# Numbering of substitutions follows the chain as printed. Where a SMILES comes first, the peptide text is derived from it.
# Key:
# [1] = biological target: T1, hTAS1R2 + hTAS1R3 L782A^6.55 (Homo sapiens, UniProt Q7RTX0+Q8TE23, L782A); assay: Calcium response (FLIPR), hTAS1R3 mutant coexpressed with hTAS1R2; type: cell-based; details: variant L782A^6.55; for EC50: (>) EC50 not calculable because saturation is not reached; for Emax: read-out: maximal signal (% of wt)
# T1 construct: expressed in transfected cells; host or cells: HEK293T cells stably expressing G16Gust44
# T1 sequence (Q8TE23 20-839): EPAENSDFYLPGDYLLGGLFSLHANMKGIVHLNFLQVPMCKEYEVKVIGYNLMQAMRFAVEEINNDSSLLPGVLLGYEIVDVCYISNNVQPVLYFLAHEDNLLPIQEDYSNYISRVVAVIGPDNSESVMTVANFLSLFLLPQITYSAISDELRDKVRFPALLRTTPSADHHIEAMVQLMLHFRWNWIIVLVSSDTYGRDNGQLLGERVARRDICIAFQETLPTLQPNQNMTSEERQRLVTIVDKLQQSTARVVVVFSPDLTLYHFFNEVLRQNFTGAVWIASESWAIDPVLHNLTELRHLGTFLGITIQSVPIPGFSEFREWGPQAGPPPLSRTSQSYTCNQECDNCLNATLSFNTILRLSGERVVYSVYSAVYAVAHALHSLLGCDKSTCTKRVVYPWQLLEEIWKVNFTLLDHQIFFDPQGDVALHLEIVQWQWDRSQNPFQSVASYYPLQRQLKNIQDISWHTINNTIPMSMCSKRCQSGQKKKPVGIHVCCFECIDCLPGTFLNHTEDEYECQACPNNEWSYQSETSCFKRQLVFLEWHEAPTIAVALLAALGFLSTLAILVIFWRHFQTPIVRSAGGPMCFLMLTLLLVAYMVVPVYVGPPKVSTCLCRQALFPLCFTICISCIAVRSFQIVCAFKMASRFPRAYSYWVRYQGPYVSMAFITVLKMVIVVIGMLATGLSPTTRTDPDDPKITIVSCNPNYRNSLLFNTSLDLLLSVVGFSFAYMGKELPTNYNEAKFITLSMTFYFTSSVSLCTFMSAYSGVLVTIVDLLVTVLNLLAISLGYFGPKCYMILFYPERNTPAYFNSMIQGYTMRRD
# T1 sequence (Q7RTX0 21-852 L782A): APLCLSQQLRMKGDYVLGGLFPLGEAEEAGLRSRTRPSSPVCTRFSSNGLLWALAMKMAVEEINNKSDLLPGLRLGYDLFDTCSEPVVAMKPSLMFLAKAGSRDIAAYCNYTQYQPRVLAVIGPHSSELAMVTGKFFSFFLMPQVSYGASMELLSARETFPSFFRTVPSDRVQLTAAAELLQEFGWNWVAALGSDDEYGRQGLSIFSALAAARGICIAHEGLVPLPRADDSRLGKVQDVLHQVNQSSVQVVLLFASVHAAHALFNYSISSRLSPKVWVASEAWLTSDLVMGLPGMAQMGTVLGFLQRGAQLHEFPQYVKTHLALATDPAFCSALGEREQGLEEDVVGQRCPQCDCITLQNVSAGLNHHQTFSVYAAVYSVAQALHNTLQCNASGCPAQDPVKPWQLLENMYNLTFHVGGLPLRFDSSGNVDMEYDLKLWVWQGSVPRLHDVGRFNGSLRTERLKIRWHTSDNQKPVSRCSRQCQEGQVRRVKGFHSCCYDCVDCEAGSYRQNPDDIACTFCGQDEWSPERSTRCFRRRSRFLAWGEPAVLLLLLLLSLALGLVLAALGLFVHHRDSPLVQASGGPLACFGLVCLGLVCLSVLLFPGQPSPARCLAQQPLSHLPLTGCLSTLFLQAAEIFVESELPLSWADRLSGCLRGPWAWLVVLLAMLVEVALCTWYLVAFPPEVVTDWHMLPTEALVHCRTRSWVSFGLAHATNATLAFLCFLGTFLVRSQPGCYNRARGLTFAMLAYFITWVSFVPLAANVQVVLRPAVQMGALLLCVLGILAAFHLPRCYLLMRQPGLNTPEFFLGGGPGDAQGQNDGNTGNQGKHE
# Method in brief: (§1)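 Read-out: FLIPR calcium signal as ΔF/F = (F-F0)/F0, corrected for mock-transfected cells. Cells were HEK293T stably carrying G16Gust44, transiently transfected with HSV-tagged receptor cDNAs and dye-loaded with Fluo4-AM 24 h post transfection.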
# [2] = biological target: T2, hTAS1R2 + hTAS1R3 Y699F^4.60 (Homo sapiens, UniProt Q7RTX0+Q8TE23, Y699F); assay: as above; type: cell-based; details: variant Y699F^4.60; for Emax: read-out: maximal signal (% of wt)
# T2 construct: expressed in transfected cells; host or cells: HEK293T cells stably expressing G16Gust44
# T2 sequence (Q7RTX0 21-852 Y699F): T1 sequence (Q7RTX0 21-852 L782A) with Y679F, A762L
# T2 sequence (Q8TE23 20-839): T1 sequence (Q8TE23 20-839)
# Method in brief: as §1
SMILES,EC50 [1],Emax [1],EC50 [2],Emax [2]
"COc1ccc(CCC(=O)c2c(O)cc(O[C@@H]3O[C@H](CO)[C@@H](O)[C@H](O)[C@H]3O[C@@H]3O[C@@H](C)[C@H](O)[C@@H](O)[C@H]3O)cc2O)cc1O [NHDC, neohesperidin dihydrochalcone]",> 3 mM,50 ± 11%,0.6 ± 0.4 mM,72 ± 17%
COC(=O)[C@H](Cc1ccccc1)NC(=O)[C@@H](N)CC(=O)O [aspartame] (HELM PEPTIDE1{D.F.[CO[*:1]]}$$$$V2.0),1.7 ± 0.3 mM,95 ± 90%,1.2 ± 0.3 mM,56 ± 2%
